In patent US6281342A, “Pradimicin compounds” (Bristol-Myers Squibb Company, priority 1994, dated 2001):
≈ marks a conversion by molar mass, not a printed value. Read-outs that look alike come from different tables or passages of the source.

Legend:
[1] = system: Candida tropicalis 85-8; experiment: MIC, two-fold agar dilution, C. tropicalis 85-8; type: cell-based; details: 858, YMA pH 7.0, 28° C., 40 hours
Method: (§1) Minimum inhibitory concentrations (MICs) of nine 4'-N-substituted pradimicin derivatives were determined by two-fold agar dilution method on phosphate-buffered yeast morphology agar (YMA, pH 7.0, Difco Laboratories). A 5-μl of fungal cell suspension containing 2×10^6 cells/ml (2×10^7 cells/ml for Trichophyton mentagrophytes) were spotted on the surface of the agar plates containing test compound. MICs were recorded after 40-hour incubation at 28° C. except for T. mentagrophytes, which required 60-hour incubation to produce visually evaluable growth on the drug-free control plates and were defined as the lowest antibiotic concentrations showing no growth or less than five discrete colonies per spot.
(§2) Medium: yeast morphology agar + 1/15 M phosphate buffer (pH 7.0)
(§3) Incubation conditions: 28° C., 40 hours (C. albicans ATCC 38247 & T.
(§4) Medium: Yeast morphology agar + 1/15 phosphate buffer (pH 7.0).

[2] = system: Trichophyton mentagrophytes #4329; experiment: MIC, two-fold agar dilution, T. mentagrophytes #4329; type: cell-based
Method: as §1, §2, §3
(§5) mentagrophytes #4329: 28° C., 60 hours).
as §4

[3] = system: Candida albicans 83-2-14; experiment: MIC, two-fold agar dilution, C. albicans 83-2-14; type: cell-based; details: 83214, YMA pH 7.0, 28° C., 40 hours
Method: as §1, §2, §3, §4

[4] = system: Candida albicans IAM 4888; experiment: MIC, two-fold agar dilution, C. albicans IAM 4888; type: cell-based; details: IAM4888, YMA pH 7.0, 28° C., 40 hours
Method: as §1, §2, §3, §4

[5] = system: Candida albicans ATCC 38247; experiment: MIC, two-fold agar dilution, C. albicans ATCC 38247; type: cell-based; details: ATCC38247, YMA pH 7.0, 28° C., 60 hours (table footnote)
Method: as §1, §2, §3, §5, §4

[6] = system: Cryptococcus neoformans D49; experiment: MIC, two-fold agar dilution, C. neoformans D49; type: cell-based; details: YMA pH 7.0, 28° C., 40 hours
Method: as §1, §2, §3, §4

[7] = system: Candida albicans A9540; experiment: animal or person; type: in vivo, male ICR mice infected with Candida albicans A9540
Method: (§6) The in vivo therapeutic efficacies of seven 4'-N-substituted pradimicin derivatives, KHM-1, KHM-2, KHM-3, KHM-4, KHM-5, KHM-6 and KHM-7 were evaluated in the mouse infected with Candida albicans A9540 and Aspergillus fumigatusIAM 2034. Groups of five specific-pathogen-free male ICR mice weighing 20-25 g at each dose level were intravenously infected with approximately 10 times the 50% lethal dose of C. albicans A9540 (1×10^6 cells/mouse) or A. fumigatus IAM 2034 (1×10^7 cells/mouse). Immediately after the fungal infection, test compounds dissolved with 10% DMSO in distilled water were intravenously given to the mouse at the dosed volume of 0.1 ml/10 g of body weight. […] Untreated control animals died 7 to 13 days post-infection.

[8] = system: Candida tropicalis IFO 10241; experiment: MIC, two-fold agar dilution, C. tropicalis IFO 10241; type: cell-based; details: IFO10241, YMA pH 7.0, 28° C., 40 hours
Method: as §1, §2, §3, §4

[9] = system: Saccharomyces cerevisiae ATCC 9763; experiment: MIC, two-fold agar dilution, S. cerevisiae ATCC 9763; type: cell-based; details: ATCC9763, YMA pH 7.0, 28° C., 40 hours
Method: as §1, §2, §3, §4

[10] = system: Cryptococcus neoformans IAM 4514; experiment: MIC, two-fold agar dilution, C. neoformans IAM 4514; type: cell-based; details: IAM4514
Method: as §1, §2, §3, §4

[11] = system: Candida albicans A9540; experiment: MIC, two-fold agar dilution, C. albicans A9540; type: cell-based
Method: as §1, §2, §3, §4

[12] = system: Aspergillus fumigatus IAM 2034; experiment: MIC, two-fold agar dilution, A. fumigatus IAM 2034; type: cell-based; details: IAM2034
Method: as §1, §2, §3, §4

[13] = system: Candida albicans ATCC 32354; experiment: MIC, two-fold agar dilution, C. albicans ATCC 32354; type: cell-based; details: ATCC32354, YMA pH 7.0, 28° C., 40 hours
Method: as §1, §2, §3, §4

[14] = system: Aspergillus fumigatus IAM 2034; experiment: Therapeutic efficacy in Aspergillus fumigatus systemic infection in mice; type: in vivo, male ICR mice infected with Aspergillus fumigatus IAM 2034; details: for S/T (No. of survivors/tested) / responders at 12.5 mg/kg / responders at 25 mg/kg / responders at 50 mg/kg: 20th day post-infection; for responders at 12.5 mg/kg / responders at 25 mg/kg / responders at 50 mg/kg: read-out: S/T (No. of survivors/tested) (converted)
Method: as §6

[15] = Table 3, Trichophyton mentagrophytes #4329, YMA, read-out: MIC TM-4
[16] = Trichophyton mentagrophytes #4329, YMA pH 7.0, 28° C., 60 hours, read-out: MIC
[17] = Candida albicans, A9540, 480 h, Table 2, C. albicans, mice, iv, 95% confidence limits in parentheses, read-out: PD50 (50% protection dose)
[18] = Cryptococcus neoformans IAM 4514, YMA pH 7.0, 28° C., 40 hours, read-out: MIC
[19] = Table 3, Cryptococcus neoformans IAM 4514, YMA, read-out: MIC Cn-2
[20] = Candida albicans A9540, YMA pH 7.0, 28° C., 40 hours, read-out: MIC
[21] = Table 3, Candida albicans A9540, YMA, read-out: MIC Ca-4
[22] = Aspergillus fumigatus IAM 2034, YMA pH 7.0, 28° C., 40 hours, read-out: MIC
[23] = Table 3, Aspergillus fumigatus IAM 2034, YMA, read-out: MIC Af-3
[24] = IAM2034, 480 h, Table 3, Aspergillus fumigatus IAM 2034, iv, read-out: PD50 (mice) Af-3
[25] = 480 h, Table 3, Candida albicans A9540, iv, read-out: PD50 (mice) Ca-4
[26] = Aspergillus fumigatus, IAM2034, 480 h, A. fumigatus, mice, 12.5 mg/kg iv
[27] = Aspergillus fumigatus, IAM2034, 480 h, A. fumigatus, mice, 25 mg/kg iv
[28] = Aspergillus fumigatus, IAM2034, 480 h, A. fumigatus, mice, 50 mg/kg iv
[29] = Aspergillus fumigatus, IAM2034, 480 h, Table 2, A. fumigatus, mice, iv, 95% confidence limits in parentheses, read-out: PD50 (50% protection dose)
[30] = Candida albicans, A9540, in Mus musculus, iv, 480 h, read-out: S/T (No. of survivors/tested)

SMILES | MIC [1] [µg/mL] | MIC [2, 15] [µg/mL] | MIC [2, 16] [µg/mL] | MIC [3] [µg/mL] | MIC [4] [µg/mL] | MIC [5] [µg/mL] | MIC [6] [µg/mL] | ED50 [7, 17] [mg/kg] | MIC [8] [µg/mL] | MIC [9] [µg/mL] | MIC [10, 18] [µg/mL] | MIC [10, 19] [µg/mL] | MIC [11, 20] [µg/mL] | MIC [11, 21] [µg/mL] | MIC [12, 22] [µg/mL] | MIC [12, 23] [µg/mL] | MIC [13] [µg/mL] | ED50 [14, 24] [mg/kg] | ED50 [7, 25] [mg/kg] | responders at 12.5 mg/kg [14, 26] [%] | also measured
COc1cc(O)c2c(c1)C(=O)c1c(cc3c(c1O)-c1c(cc(C)c(C(=O)N[C@H](C)C(=O)O)c1O)[C@H](O[C@@H]1O[C@H](C)[C@H](N(C)C#N)[C@H](O[C@@H]4OC[C@@H](O)[C@H](O)[C@H]4O)[C@H]1O)[C@H]3O)C2=O [KHM-1, 4'-N-Cyanogradimicin A] | 12.5 (≈ 14.4 µM) | 25 (≈ 28.9 µM) | 25 (≈ 28.9 µM) | 3.1 (≈ 3.58 µM) | 3.1 (≈ 3.58 µM) | 1.6 (≈ 1.85 µM) | 3.1 (≈ 3.58 µM) | 13 | 12.5 (≈ 14.4 µM) | 1.6 (≈ 1.85 µM) | 3.1 (≈ 3.58 µM) | 3.1 (≈ 3.58 µM) | 3.1 (≈ 3.58 µM) | 3.1 (≈ 3.58 µM) | 12.5 (≈ 14.4 µM) | 12.5 (≈ 14.4 µM) | 3.1 (≈ 3.58 µM) | > 50 |  |  | S/T (No. of survivors/tested) ([7]; C. albicans, mice, 6.3 mg/kg iv, 20th day post-infection): 1/5; S/T (No. of survivors/tested) ([7]; C. albicans, mice, 12.5 mg/kg iv, 20th day post-infection): 3/5; S/T (No. of survivors/tested) ([7]; C. albicans, mice, 25 mg/kg iv, 20th day post-infection): 4/5; S/T (No. of survivors/tested) ([7]; C. albicans, mice, 50 mg/kg iv, 20th day post-infection): 5/5; S/T (No. of survivors/tested) ([14]; A. fumigatus, mice, 6.3 mg/kg iv): 0.5; S/T (No. of survivors/tested) ([14]; A. fumigatus, mice, 12.5 mg/kg iv): 2/5; S/T (No. of survivors/tested) ([14]; A. fumigatus, mice, 25 mg/kg iv): 0/5; S/T (No. of survivors/tested) ([14]; A. fumigatus, mice, 50 mg/kg iv): 1/5; ED50 ([14]; Aspergillus fumigatus, IAM2034, iv, 480 h, read-out: PD50 (50% protection dose)): > 50 mg/kg
COc1cc(O)c2c(c1)C(=O)c1c(cc3c(c1O)-c1c(cc(C)c(C(=O)N[C@H](CO)C(=O)O)c1O)[C@H](O[C@@H]1O[C@H](C)[C@H](N(C)C#N)[C@H](O[C@@H]4OC[C@@H](O)[C@H](O)[C@H]4O)[C@H]1O)[C@H]3O)C2=O [KHM-3, 4'-Cyanooradimicin FA-1] | 12.5 (≈ 14.2 µM) | 50 (≈ 56.7 µM) | 50 (≈ 56.7 µM) | 6.3 (≈ 7.14 µM) | 6.3 (≈ 7.14 µM) | 3.1 (≈ 3.52 µM) | 6.3 (≈ 7.14 µM) | > 50 | 12.5 (≈ 14.2 µM) | 1.6 (≈ 1.81 µM) | 6.3 (≈ 7.14 µM) | 6.3 (≈ 7.14 µM) | 6.3 (≈ 7.14 µM) | 6.3 (≈ 7.14 µM) | 25 (≈ 28.4 µM) | 25 (≈ 28.4 µM) | 6.3 (≈ 7.14 µM) | > 50 | > 50 | 0 | responders at 12.5 mg/kg ([7]; Candida albicans, A9540, 480 h, C. albicans, mice, 12.5 mg/kg iv, 20th day post-infection, read-out: S/T (No. of survivors/tested) (converted)): 0%; responders at 25 mg/kg ([7]; Candida albicans, A9540, 480 h, C. albicans, mice, 25 mg/kg iv, 20th day post-infection, read-out: S/T (No. of survivors/tested) (converted)): 0%; responders at 50 mg/kg ([7]; Candida albicans, A9540, 480 h, C. albicans, mice, 50 mg/kg iv, 20th day post-infection, read-out: S/T (No. of survivors/tested) (converted)): 40%; responders at 25 mg/kg [14, 27]: 0%; responders at 50 mg/kg [14, 28]: 0%; ED50 [14, 29]: > 50 mg/kg
COc1cc(O)c2c(c1)C(=O)c1c(cc3c(c1O)-c1c(cc(C)c(C(=O)N[C@H](CO)C(=O)O)c1O)[C@H](O[C@@H]1O[C@H](C)[C@H](N(C)N=O)[C@H](O[C@@H]4OC[C@@H](O)[C@H](O)[C@H]4O)[C@H]1O)[C@H]3O)C2=O [KHM-5, 4'-N-Nitrosopradimicin FA-1] | 12.5 (≈ 14.1 µM) | 6.3 (≈ 7.11 µM) | 6.3 (≈ 7.11 µM) | 6.3 (≈ 7.11 µM) | 6.3 (≈ 7.11 µM) | 3.1 (≈ 3.5 µM) | 3.1 (≈ 3.5 µM) | > 50 | 12.5 (≈ 14.1 µM) | 3.1 (≈ 3.5 µM) | 3.1 (≈ 3.5 µM) | 3.1 (≈ 3.5 µM) | 6.3 (≈ 7.11 µM) | 6.3 (≈ 7.11 µM) | 3.1 (≈ 3.5 µM) | 3.1 (≈ 3.5 µM) | 6.3 (≈ 7.11 µM) | > 50 | > 50 | 0 | responders at 12.5 mg/kg [7, 30]: 20%; responders at 25 mg/kg [7, 30]: 0%; responders at 50 mg/kg [7, 30]: 40%; responders at 25 mg/kg [14, 27]: 0%; responders at 50 mg/kg [14, 28]: 40%; ED50 [14, 29]: > 50 mg/kg
